Measurements from ChEMBL document CHEMBL6182944, “Substrate Specificity of the Organic Cation Transporters MATE1 and MATE2K and Functional Overlap with OCT1 and OCT2” (J Med Chem, 2025).

What was measured:
[1] = biological target: T1, Multidrug and toxin extrusion protein 2 (Homo sapiens, UniProt Q86VL8); experiment: Substrate activity at MATE2-K (unknown origin) expressed in HEK293 cells assessed as ratio of uptake by the enantiomer with higher value to enantiomer with lower value at 2.5 uM measured after 1 min by HPLC-MS/MS analysis; type: cell-based; details: hek293, 1 min
T1 sequence (Q86VL8 whole entry): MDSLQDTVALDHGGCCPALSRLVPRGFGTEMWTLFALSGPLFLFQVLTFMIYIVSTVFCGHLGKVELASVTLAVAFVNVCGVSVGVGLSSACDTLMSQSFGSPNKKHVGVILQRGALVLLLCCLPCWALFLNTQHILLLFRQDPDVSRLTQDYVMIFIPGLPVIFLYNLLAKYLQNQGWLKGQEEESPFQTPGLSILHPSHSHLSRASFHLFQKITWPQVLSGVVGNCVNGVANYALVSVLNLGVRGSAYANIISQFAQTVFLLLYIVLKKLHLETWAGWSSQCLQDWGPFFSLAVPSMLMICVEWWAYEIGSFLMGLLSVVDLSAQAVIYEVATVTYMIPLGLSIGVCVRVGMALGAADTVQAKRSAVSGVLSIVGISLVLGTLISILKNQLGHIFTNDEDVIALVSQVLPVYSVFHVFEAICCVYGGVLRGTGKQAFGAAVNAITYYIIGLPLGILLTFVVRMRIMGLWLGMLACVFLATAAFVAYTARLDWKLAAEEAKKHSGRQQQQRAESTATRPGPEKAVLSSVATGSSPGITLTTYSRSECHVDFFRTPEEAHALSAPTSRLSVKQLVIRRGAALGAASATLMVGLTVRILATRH

[2] = biological target: T2, Multidrug and toxin extrusion protein 1 (Homo sapiens, UniProt Q96FL8); experiment: Substrate activity at MATE1 (unknown origin) expressed in HEK293 cells assessed as ratio of uptake by the enantiomer with higher value to enantiomer with lower value at 2.5 uM measured after 1 min by HPLC-MS/MS analysis; type: cell-based; details: hek293, 1 min
T2 sequence (Q96FL8 whole entry): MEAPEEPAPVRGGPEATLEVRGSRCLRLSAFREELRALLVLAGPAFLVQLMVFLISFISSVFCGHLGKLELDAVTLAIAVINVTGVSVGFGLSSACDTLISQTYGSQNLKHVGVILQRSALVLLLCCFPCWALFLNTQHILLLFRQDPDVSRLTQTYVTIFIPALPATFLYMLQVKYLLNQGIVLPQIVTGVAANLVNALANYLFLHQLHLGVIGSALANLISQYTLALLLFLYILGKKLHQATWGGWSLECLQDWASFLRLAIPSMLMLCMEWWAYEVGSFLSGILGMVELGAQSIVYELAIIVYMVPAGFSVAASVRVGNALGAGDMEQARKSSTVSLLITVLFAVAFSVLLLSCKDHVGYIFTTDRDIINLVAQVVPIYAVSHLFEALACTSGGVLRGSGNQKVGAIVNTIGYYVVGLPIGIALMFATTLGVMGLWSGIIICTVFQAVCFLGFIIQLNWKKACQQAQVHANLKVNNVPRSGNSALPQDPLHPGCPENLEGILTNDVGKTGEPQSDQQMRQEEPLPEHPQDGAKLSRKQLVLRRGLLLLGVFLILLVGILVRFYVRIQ

[3] = biological target: T2, Multidrug and toxin extrusion protein 1; experiment: Substrate activity at MATE1 (unknown origin) expressed in HEK293 cells assessed as intrinsic clearance by measuring ratio of Vmax (maximum transport velocity) over Km measured per mg of protein by HPLC-MS/MS analysis; type: cell-based
[4] = biological target: T1, Multidrug and toxin extrusion protein 2; experiment: Substrate activity at MATE2-K (unknown origin) expressed in HEK293 cells assessed as intrinsic clearance by measuring ratio of Vmax (maximum transport velocity) over Km measured per mg of protein by HPLC-MS/MS analysis; type: cell-based
[5] = biological target: T2, Multidrug and toxin extrusion protein 1; experiment: Substrate activity at MATE1 (unknown origin) expressed in HEK293 cells assessed as Vmax (maximum transport velocity) by HPLC-MS/MS analysis; type: cell-based
[6] = biological target: T1, Multidrug and toxin extrusion protein 2; experiment: Substrate activity at MATE2-K (unknown origin) expressed in HEK293 cells assessed as Vmax (maximum transport velocity) by HPLC-MS/MS analysis; type: cell-based
MATE2-K = biological target: T3, MATE2-K (Homo sapiens, UniProt Q86VL8); experiment: in vitro
T3 sequence (Q86VL8 whole entry): T1 sequence (Q86VL8 whole entry)

MATE1 = biological target: T4, MATE1 (Homo sapiens, UniProt Q96FL8); experiment: in vitro
T4 sequence (Q96FL8 whole entry): T2 sequence (Q96FL8 whole entry)

[7] = HEK293 cells expressing MATE2-K

SMILES	Ratio [1]	Ratio [2]	Vmax [5] [pmol/min]	uptake ratio at 1 min, 2.5 µM (MATE2-K; [7])	uptake ratio at 1 min, 2.5 µM (MATE1; HEK293 cells expressing MATE1)	further results
O=C(O[C@H]1C[N+]2(CCCOc3ccccc3)CCC1CC2)C(O)(c1cccs1)c1cccs1.[Br-] (mixture of isomers) [ACLIDINIUM BROMIDE]	> 1	> 1				
CN(C)CCc1c[nH]c2ccc(CC3COC(=O)N3)cc12 (racemic)			2992			CL [3]: 52.4 µL/min; CL [4]: 32.1 µL/min; Vmax [6]: 740 pmol/min
C#CCNC1CCc2ccccc21 (racemic)	> 1	> 1				
CNCCC(Oc1ccccc1C)c1ccccc1 (racemic)	> 1	1				
CNCC(O)c1cccc(O)c1 (racemic)	> 1	> 1				
NC1CONC1=O (racemic)	> 1	1				
CC(C)(C)NCC(O)c1ccc(O)c(CO)c1 (racemic) [ALBUTEROL]	> 1	> 1		> 2	> 2	
CCN1CCCC1CNC(=O)c1cc(S(=O)(=O)CC)c(N)cc1OC (racemic) [AMISULPRIDE]	> 1	> 1	238	> 2	> 2	CL [3]: 22.4 µL/min; CL [4]: 17.8 µL/min
COc1ccccc1OCCNCC(O)COc1cccc2[nH]c3ccccc3c12 (racemic) [CARVEDILOL]	> 1	1				
CN(C)CCCC1(c2ccc(F)cc2)OCc2cc(C#N)ccc21 (racemic) [CITALOPRAM]	> 1	> 1				
Cc1cccc(C)c1OCC(C)N (racemic) [MEXILETINE]	> 1	> 1				uptake ratio at 1 min, 2.5 µM (MATE2-K; hek293): < 2; uptake ratio at 1 min, 2.5 µM (MATE1; hek293): < 2
COc1ccc(C(CN(C)C)C2(O)CCCCC2)cc1 (racemic) [VENLAFAXINE]	> 1	> 1				
CC(CCc1ccc(O)cc1)NCCc1ccc(O)c(O)c1 (stereo not given) [DOBUTAMINE]			2586	> 2	> 2	CL [3]: 29.2 µL/min; CL [4]: 5.71 µL/min
NCCc1ccc(O)c(O)c1 [DOPAMINE]			10148			CL [3]: 19.2 µL/min; CL [4]: 1.27 µL/min; uptake ratio at 1 min, 2.5 µM (MATE2-K; hek293): > 2; uptake ratio at 1 min, 2.5 µM (MATE1; hek293): > 2
CN(C)CCC=C1c2ccccc2COc2ccccc21 [DOXEPIN]	1	1				
Nc1nc(=O)n([C@@H]2CS[C@H](CO)O2)cc1F [EMTRICITABINE]			4523			CL [3]: 4.56 µL/min; CL [4]: 3.02 µL/min
CNC[C@H](O)c1ccc(O)c(O)c1 [EPINEPHRINE]			22773			CL [3]: 21.1 µL/min; CL [4]: 1.97 µL/min; uptake ratio at 1 min, 2.5 µM (MATE2-K; hek293): > 2; uptake ratio at 1 min, 2.5 µM (MATE1; hek293): > 2
C[C@H]1N=C(N(C)C)N=C(N)N1 [IMEGLIMIN]			6242	> 2	> 2	CL [3]: 108 µL/min; CL [4]: 34.5 µL/min
C[N@+]1(CC2CC2)CC[C@]23c4c5ccc(O)c4O[C@H]2C(=O)CC[C@@]3(O)[C@H]1C5 [METHYLNALTREXONE]			56			

SMILES	Ratio [1]	Ratio [2]	Vmax [5] [pmol/min]	uptake ratio at 1 min, 2.5 µM (MATE2-K; [7])	uptake ratio at 1 min, 2.5 µM (MATE1; HEK293 cells expressing MATE1)	further results
Cc1ncc(CO)c(CO)c1O [PYRIDOXINE]			10014			CL [3]: 2.37 µL/min; CL [4]: 1.2 µL/min; uptake ratio at 1 min, 2.5 µM (MATE2-K; hek293): < 2; uptake ratio at 1 min, 2.5 µM (MATE1; hek293): > 2
C#CCN[C@@H]1CCc2ccccc21 [RASAGILINE]			194			
CNCc1ccc(-c2[nH]c3cc(F)cc4c3c2CCNC4=O)cc1 [RUCAPARIB]				> 2	> 2	
CCN(CC)CCNC(=O)c1ccc(NS(C)(=O)=O)cc1 [SEMATILIDE]				> 2	> 2	
NCCc1c[nH]c2ccc(O)cc12 [SEROTONIN]				> 2	> 2	
N[C@@H](CC(=O)N1CCn2c(nnc2C(F)(F)F)C1)Cc1cc(F)c(F)cc1F [SITAGLIPTIN]				> 2	> 2	
CC(C)NCC(O)c1ccc(NS(C)(=O)=O)cc1 (stereo not given) [SOTALOL]				< 2	> 2	
NCCCCNCCCN [SPERMIDINE]				< 2	< 2	
NCCCNCCCCNCCCN [SPERMINE]						uptake ratio at 1 min, 2.5 µM (MATE2-K; hek293): < 2; uptake ratio at 1 min, 2.5 µM (MATE1; hek293): < 2
Cn1nnc2c(C(N)=O)ncn2c1=O [TEMOZOLOMIDE]				< 2	< 2	
CC(C)(C)NCC(O)c1cc(O)cc(O)c1 (stereo not given) [TERBUTALINE]				> 2	> 2	
CC[C@@]1(O)C(=O)OCc2c1cc1n(c2=O)Cc2cc3c(CN(C)C)c(O)ccc3nc2-1 [TOPOTECAN]				> 2	> 2	
O=C(O[C@H]1C[C@H]2CC[C@@H](C1)[N+]21CCCC1)C(O)(c1ccccc1)c1ccccc1 [TROSPIUM]				< 2	> 2	
C=CCN1CCCC1CNC(=O)c1cc(S(N)(=O)=O)cc(OC)c1OC (stereo not given) [VERALIPRIDE]				> 2	> 2	
O=C(NCCNCC(O)COc1ccc(O)cc1)N1CCOCC1 (stereo not given) [XAMOTEROL]				> 2	> 2	
Nc1ccn([C@H]2CC[C@@H](CO)O2)c(=O)n1 [ZALCITABINE]			10171			CL [3]: 6.53 µL/min
O=c1ncccn1[C@@H]1O[C@H](CO)[C@@H](O)[C@H]1O [ZEBULARINE]				< 2	< 2	
CN(C)CCc1c[nH]c2ccc(C[C@H]3COC(=O)N3)cc12 [ZOLMITRIPTAN]			2992			CL [3]: 65.2 µL/min; CL [4]: 17.6 µL/min
